The values that follow come from patent US20130089869A1, “Methods For and Uses of Mechanical Stiffness Profiling of Cancer Cells” (DUKE UNIVERSITY, priority 2011, published 2013).

Common to all, as to format: cell-based, Human
For data set [1], the system named is IGROV. In words: Matrigel invasion assay, IGROV cells. To be noted: blebbistatin 100 μM in top chamber, 18-24 hours, vs untreated. The procedure: (§1) Cancer cells were seeded at a cell density of 25,000-70,000 on either Matrigel coated or uncoated filters and allowed to invade for 18-24 hours towards 10% FBS in the lower chamber. Cells invading and migrating through the Matrigel layer were visualized and counted as described^9. Percent cell migration or invasion was determined as the fraction of total cells that invaded through the filter. Blebbistatin (100 μM)^10 where used, was added to the top chamber of the transwell and migration and invasion allowed to proceed. Each assay was set up in duplicate, and each experiment was conducted at least 3 times with 4 random fields from a 10× magnification analyzed for each membrane.

Data set [2] concerns IGROV. Briefly: Transwell migration assay, IGROV cells. To be noted: blebbistatin 100 μM in top chamber, vs untreated. The procedure:
as §1

Data set [3] deals with IGROV. In words: Magnetic tweezers assay (3DFM) of cell stiffness, IGROV cells. The settings on record: blebbistatin 100 μm added 30 mins before beads, vs untreated. The procedure:
(§2) The Three Dimensional Force Microscope (3DFM)^11 was used for applying controlled and precise 60-100 pN local force (FIG. 6) on 2.8 micron magnetic beads (DYNAL Biotech, Oslo, Norway) coated with fibronectin (Sigma Aldrich, St. Louis, Mo.). Briefly, cells were plated on coverslips followed by addition of the beads. Cells and beads were incubated for 30 minutes followed by force application and resultant bead displacements were recorded and analyzed. The displacement of the beads was recorded with high-speed video camera (Pulnix, JAI, Ca) and tracked using Video Spot Tracker (http://cismm.cs.unc.edu). The mean creep compliance was calculated from the tracked displacements as described. Spring constants were derived by fitting the compliance curves to a Jeffrey's model for viscoelastic liquids (FIG. 6). […]
(§3) To further examine the relationship between cancer cell deformability and invasive potential, the effective shear modulus (here on referred to as the stiffness, k), of the cell was calculated by fitting a modified Kelvin Voigt model^12 to the compliance using a least squares fit (see FIG. 6). […] In addition, the variability in stiffness correlates directly with a specific measure of metastatic progression as determined using in vitro three-dimensional invasion assays.

Data set [4] has as its system Ovca429TβRIII cells. Briefly: Matrigel invasion assay, Ovca429TβRIII cells. The settings on record: Ovca429TβRIII cells treated with blebbistatin, vs untreated. Here is the method:
as §1

The subject of data set [5] is Ovca429TβRIII cells. Briefly: Magnetic tweezers assay (3DFM) of cell stiffness, Ovca429TβRIII cells. The settings on record: Ovca429TβRIII cells treated with blebbistatin. Here is the method:
as §2, §3

The subject of data set [6] is IGROV. Briefly: Viability of IGROV cells under blebbistatin. To be noted: concentration that disrupted cortical pMLC localization.
Data set [7] deals with IGROV. Briefly: Immunofluorescence of cortical pMLC localization, IGROV cells. To be noted: blebbistatin. The procedure:
Immunoflourescence was performed essentially as described previously^9 and images were obtained using a Nikon inverted microscope.

In the case of `Cc1ccc2c(c1)C(=O)C1(O)CCN(c3ccccc3)C1=N2` (centres unmarked) [Blebbistatin], the “increase of cell invasion” value in the data set with IGROV [1] is given as 2.5 fold. The “increase of cell migration” value with IGROV [2] worked out at 4 fold. Moreover, the “decrease of cell stiffness” value in the data set with IGROV [3] is 2 fold. The increase of invasiveness result in the data set on Ovca429TβRIII cells [4] is “four fold”. The “stiffness K (spring constant)” value with Ovca429TβRIII cells [5] came out at 1.48 Pa. For the same compound, the decrease of stiffness entry with Ovca429TβRIII cells [5] (vs untreated) is given as “two fold”. Besides, in the data set with IGROV [6], the effect on viability result is given as “did not affect viability”. Moreover, the “cortical pMLC localization” value in the data set on IGROV [7] was “disrupted cortical pMLC localization”.
